Positions of bridges follow the written chain, without caps; N, C: chain ends. Residues, ends and D or L forms follow the SMILES beside them.
Columns and labels:
[1] = tested on: antibodies specific to HIV-1; experiment: ELISA serum titers, plates coated with cyclic 87c versus linear 87; type: binding, human
Excerpt: (§1) Even though results presented in TABLE 5 clearly show the superiority of cyclic peptides over their linear counterpart in detecting HIV-1-antibodies, that increased sensitivity could have been underestimated because of probable cyclization and polymerization of the linear peptide after solubilization in a carbonate buffer (pH 9.6). That experiment was repeated with the linear 87 and cyclic 87c peptides dissolved in a carbonate buffer (pH 9.6) as before and also in 10% acetic acid (pH 2.7). […] It is believed that cydization and polymerization also occured in the wells of the microtiter plates although the exact proportion of cyclic peptide bound to the plates versus linear has not been as yet determined.
(§2) Plates used in this experiment were coated with solutions of peptides at 10 μg/ml. (Experimental results of TABLE 5 were obtained with plates coated with peptides at 0,5 μg/ml). Four different HIV-1 positive serum samples were serially diluted and their titers determined. The titer was defined as the serum dilution giving an absorbancy reading of 1:0 in the conditions of the ELISA procedure already described.
The ratios of sensitivities measured with the cyclic peptide over the linear 87 peptide vary between 1:3 and 2:2 with an average of 1:8. These ratios are even larger, varying from 3:0 to 4:5, when the sensitivity of the ELISA test using the cyclic 87c peptide is compared using conditions (acidic pH) where the linear 87 peptide remains linear and is not allowed to cyclize or polymerize.

HIV-1 antibodies [2] = experiment: ELISA, single peptides identifying HIV-1 positive sera; type: binding, human; conditions: ELISA, single peptide
Method: According to this test a peptide or a peptide mixture of the present invention is adsorbed onto the wells of a microtiter plate. The wells are then treated with sera to be tested. After washing, anti-human IgG labeled with peroxidase is added to the wells. The determination of the peroxidase is performed with a corresponding substrate, e.g. with o-phenylene diamine. Also in this procedure the peroxidase can be exchanged by another label, e.g. by a radioactive or fluorescence label.
(§3) Each well of the microtiter plate is saturated with 100 μl of a solution containing a peptide or mixture of peptides (5 μg/ml) and left overnight. The wells are emptied and washed twice with a washing buffer (Tris, 0.043M; NaCl, 0.5M;thimerosal, 0.01% w/v; Tween 20, 0.05% v/v; pH 7.4). The wells are then saturated with 0.35 ml of washing buffer for 1 hr. at 37° C. and washed once with the same buffer. Serum samples to be analyzed are diluted with specimen buffer (washing buffer plus casein, 0.05% w/v). The wells are rinsed with washing buffer prior to the addition of the diluted serum sample (0.1 ml). These are left to incubate for 1 hr. at room temperature. The wells are then emptied, washed twice rapidly and then once for two minutes with washing buffer. […] The wells are then emptied and washed twice rapidly with washing buffer and then five times in which the buffer was in contact with the well 2 minutes per washing.
(§4) The substrate solution (3,3', 5,5'-tetramethylbenzidine, 8 mg per ml of DMSO) is diluted with 100 volumes 0.1M citrate-acetate buffer, pH 5.6 containing 0.1% v/v of 30% H2 O2 and added to each well (0.1 ml per well). After 10 minutes the contents of each well is treated with 0.1 ml 2N H2 SO4 and the optical density read at 450 nm. All determinations are done in duplicate.

HIV-1-antibodies = experiment: ELISA, cyclic versus non-cyclic peptides, sera at various dilutions; type: binding, human
Method: TABLE 5 is provided to illustrate the sensitivity of cyclic versus noncyclic peptides in the ELISA test by comparing the results of some sera at various dilutions.
as §2, §3, §4

HIV-1 antibodies [3] = experiment: ELISA plates coated with cyclic 87c versus linear 87 or polymers of 87: sensitivity and background; type: binding, human
[4] = State of peptide in coating solution (HPLC, Ellman's test); type: physicochemical; conditions: for state of peptide in solution (HPLC, Ellman's test): 10% acetic acid (pH 2.7)
Excerpt: as §1

[5] = coating buffer 10% Acetic Acid (pH 2.7), serum M-5, coated at 10 μg/ml
[6] = coating buffer 10% Acetic Acid (pH 2.7), serum M-7, coated at 10 μg/ml
[7] = coating buffer 10% Acetic Acid (pH 2.7), serum M-8, coated at 10 μg/ml
[8] = coating buffer 10% Acetic Acid (pH 2.7), serum M-16, coated at 10 μg/ml
[9] = coating buffer Carbonate Bicarbonate 0.1M (pH 9.6), serum M-5, coated at 10 μg/ml
[10] = coating buffer Carbonate Bicarbonate 0.1M (pH 9.6), serum M-7, coated at 10 μg/ml
[11] = coating buffer Carbonate Bicarbonate 0.1M (pH 9.6), serum M-8, coated at 10 μg/ml
[12] = coating buffer Carbonate Bicarbonate 0.1M (pH 9.6), serum M-16, coated at 10 μg/ml

## CC[C@H](C)[C@H](NC(=O)CNC(=O)[C@H](CC(C)C)NC(=O)[C@H](CC(C)C)NC(=O)[C@H](CCC(N)=O)NC(=O)[C@H](CCC(N)=O)NC(=O)[C@H](CC(=O)O)NC(=O)[C@H](CCCCN)NC(=O)[C@H](CC(C)C)NC(=O)[C@H](Cc1ccc(O)cc1)NC(=O)[C@H](CCCNC(=N)N)NC(=O)[C@H](CCC(=O)O)NC(=O)[C@@H](NC(=O)[C@H](C)NC(=O)[C@H](CC(C)C)NC(=O)[C@@H](NC(=O)[C@@H](N)CCCNC(=N)N)[C@@H](C)CC)C(C)C)C(=O)N[C@@H](Cc1c[nH]c2ccccc12)C(=O)NCC(=O)N[C@H]1CSSC[C@@H](C(=O)N[C@H](C(=O)N[C@H](C(=O)N[C@@H](C)C(=O)N[C@H](C(=O)N2CCC[C@H]2C(=O)N[C@@H](Cc2c[nH]c3ccccc23)C(=O)N[C@@H](CC(N)=O)C(=O)N[C@@H](C)C(=O)N[C@@H](CO)C(=O)O)C(C)C)[C@@H](C)O)[C@@H](C)O)NC(=O)[C@H]([C@@H](C)CC)NC(=O)[C@H](CC(C)C)NC(=O)[C@H](CCCCN)NC(=O)CNC(=O)[C@H](CO)NC1=O [Peptide 87c] (H-RILAVERYLKDQQLLGIWGCSGKLICTTAVPWNAS-OH; disulfide 20-26)
[1]; 10% Acetic Acid (pH 2.7), serum M-5
  titer ratio A/B (87c cyclic / 87 linear): 3.0
[1]; 10% Acetic Acid (pH 2.7), serum M-7
  titer ratio A/B (87c cyclic / 87 linear): 3.9
[1]; 10% Acetic Acid (pH 2.7), serum M-8
  titer ratio A/B (87c cyclic / 87 linear): 4.5
[1]; 10% Acetic Acid (pH 2.7), serum M-16
  titer ratio A/B (87c cyclic / 87 linear): 3.7
[1]; Carbonate Bicarbonate 0.1M (pH 9.6), serum M-5
  titer ratio A/B (87c cyclic / 87 linear): 1.3
[1]; Carbonate Bicarbonate 0.1M (pH 9.6), serum M-7
  titer ratio A/B (87c cyclic / 87 linear): 1.8
[1]; Carbonate Bicarbonate 0.1M (pH 9.6), serum M-8
  titer ratio A/B (87c cyclic / 87 linear): 2.2
[1]; Carbonate Bicarbonate 0.1M (pH 9.6), serum M-16
  titer ratio A/B (87c cyclic / 87 linear): 1.7
[1]; [5]
  serum titer: 13500
[1]; [6]
  serum titer: 9000
[1]; [7]
  serum titer: 6300
[1]; [8]
  serum titer: 56000
[1]; [9]
  serum titer: 13500
[1]; [10]
  serum titer: 11000
[1]; [11]
  serum titer: 6500
[1]; [12]
  serum titer: 56000
HIV-1 antibodies [2]
  % Positive Sera correctly Identified: 99%
HIV-1-antibodies; serum 87V103, dilution 1/50
  ELISA optical density: 0.011 optical density units
HIV-1-antibodies; serum 1428, dilution 1/50
  ELISA optical density: > 2.0 optical density units
HIV-1-antibodies; serum M-5, dilution 1/50
  ELISA optical density: > 2.0 optical density units
HIV-1-antibodies; serum M-5, dilution 1/100
  ELISA optical density: > 2.0 optical density units
HIV-1-antibodies; serum M-5, dilution 1/200
  ELISA optical density: > 2.0 optical density units
HIV-1-antibodies; serum M-5, dilution 1/400
  ELISA optical density: > 2.0 optical density units
HIV-1-antibodies; serum M-5, dilution 1/800
  ELISA optical density: 1.854 optical density units
HIV-1-antibodies; serum M-7, dilution 1/50
  ELISA optical density: > 2.0 optical density units
HIV-1-antibodies; serum M-7, dilution 1/100
  ELISA optical density: > 2.0 optical density units
HIV-1-antibodies; serum M-7, dilution 1/200
  ELISA optical density: 1.729 optical density units
HIV-1-antibodies; serum M-7, dilution 1/400
  ELISA optical density: 1.348 optical density units
HIV-1-antibodies; serum M-7, dilution 1/800
  ELISA optical density: 0.611 optical density units
HIV-1-antibodies; serum M-8, dilution 1/50
  ELISA optical density: > 2.0 optical density units
HIV-1-antibodies; serum M-8, dilution 1/100
  ELISA optical density: > 2.0 optical density units
HIV-1-antibodies; serum M-8, dilution 1/200
  ELISA optical density: 1.655 optical density units
HIV-1-antibodies; serum M-8, dilution 1/400
  ELISA optical density: 1.064 optical density units
HIV-1-antibodies; serum M-8, dilution 1/800
  ELISA optical density: 0.384 optical density units
HIV-1-antibodies; serum M-16, dilution 1/50
  ELISA optical density: > 2.0 optical density units
HIV-1-antibodies; serum M-16, dilution 1/100
  ELISA optical density: > 2.0 optical density units
HIV-1-antibodies; serum M-16, dilution 1/200
  ELISA optical density: > 2.0 optical density units
HIV-1-antibodies; serum M-16, dilution 1/400
  ELISA optical density: > 2.0 optical density units
HIV-1-antibodies; serum M-16, dilution 1/800
  ELISA optical density: 1.962 optical density units
HIV-1 antibodies [3]
  sensitivity in detecting HIV-1 antibodies compared with plates coated with pool of fractions containing only polymers of peptide 87: superiority
[4]
  state of peptide in solution (HPLC, Ellman's test): remained cyclic

## NH2 -RILAVERYLKDQQLLGIWGCSGKLICTTAVPWNAS-COOH [Peptide 87]
[1]; [5]
  serum titer: 4500
[1]; [6]
  serum titer: 2300
[1]; [7]
  serum titer: 1400
[1]; [8]
  serum titer: 15000
[1]; [9]
  serum titer: 10500
[1]; [10]
  serum titer: 6000
[1]; [11]
  serum titer: 2900
[1]; [12]
  serum titer: 33000
HIV-1 antibodies [2]
  % Positive Sera correctly Identified: 99%
HIV-1-antibodies; serum 87V103, dilution 1/50
  ELISA optical density: 0.005 optical density units
HIV-1-antibodies; serum 1428, dilution 1/50
  ELISA optical density: 1.463 optical density units
HIV-1-antibodies; serum M-5, dilution 1/50
  ELISA optical density: 1.809 optical density units
HIV-1-antibodies; serum M-5, dilution 1/100
  ELISA optical density: 1.685 optical density units
HIV-1-antibodies; serum M-5, dilution 1/200
  ELISA optical density: 1.513 optical density units
HIV-1-antibodies; serum M-5, dilution 1/400
  ELISA optical density: 1.418 optical density units
HIV-1-antibodies; serum M-5, dilution 1/800
  ELISA optical density: 1.012 optical density units
HIV-1-antibodies; serum M-7, dilution 1/50
  ELISA optical density: 1.504 optical density units
HIV-1-antibodies; serum M-7, dilution 1/100
  ELISA optical density: 1.329 optical density units
HIV-1-antibodies; serum M-7, dilution 1/200
  ELISA optical density: 1.184 optical density units
HIV-1-antibodies; serum M-7, dilution 1/400
  ELISA optical density: 0.923 optical density units
HIV-1-antibodies; serum M-7, dilution 1/800
  ELISA optical density: 0.571 optical density units
HIV-1-antibodies; serum M-8, dilution 1/50
  ELISA optical density: 1.390 optical density units
HIV-1-antibodies; serum M-8, dilution 1/100
  ELISA optical density: 1.087 optical density units
HIV-1-antibodies; serum M-8, dilution 1/200
  ELISA optical density: 0.883 optical density units
HIV-1-antibodies; serum M-8, dilution 1/400
  ELISA optical density: 0.593 optical density units
HIV-1-antibodies; serum M-8, dilution 1/800
  ELISA optical density: 0.240 optical density units
HIV-1-antibodies; serum M-16, dilution 1/50
  ELISA optical density: 1.846 optical density units
HIV-1-antibodies; serum M-16, dilution 1/100
  ELISA optical density: 1.784 optical density units
HIV-1-antibodies; serum M-16, dilution 1/200
  ELISA optical density: 1.740 optical density units
HIV-1-antibodies; serum M-16, dilution 1/400
  ELISA optical density: 1.634 optical density units
HIV-1-antibodies; serum M-16, dilution 1/800
  ELISA optical density: 1.537 optical density units
[4]
  state of peptide in solution (HPLC, Ellman's test): remained linear
[4]; carbonate buffer (pH 9.6), room temperature
  state of peptide in solution (HPLC): underwent cyclization and polymerization
